Measured values from patent US20080279769A1, “Enzyme Inhibitor Imaging Agents” (priority 2004, published 2008).

Key:
MMP-2 = MMP-2 (Homo sapiens, UniProt P08253); experiment: In vitro metalloproteinase inhibition assay (Biomol MMP-2 colorimetric assay kit); assay type: biochemical
Experimental: (§1) Compounds were screened using the following commercially available Biomol assay kits:
(§2) Inhibitors were provided in powdered form, and stored at 4° C. For each inhibitor a 1 mM stock solution in DMSO was prepared, dispensed into 20 μl aliquots and these aliquots stored at −20° C. […] Dilutions were made in the kit assay buffer. A five-fold dilution of the inhibitor stocks is made on addition to the assay wells, therefore final concentration range was from 10 μM to 1 pM.

MMP-9 = MMP-9 (Homo sapiens, UniProt P14780); experiment: In vitro metalloproteinase inhibition assay (Biomol MMP-9 colorimetric assay kit); assay type: biochemical
Sequence of MMP-9 (P14780 107-444 limits assumed): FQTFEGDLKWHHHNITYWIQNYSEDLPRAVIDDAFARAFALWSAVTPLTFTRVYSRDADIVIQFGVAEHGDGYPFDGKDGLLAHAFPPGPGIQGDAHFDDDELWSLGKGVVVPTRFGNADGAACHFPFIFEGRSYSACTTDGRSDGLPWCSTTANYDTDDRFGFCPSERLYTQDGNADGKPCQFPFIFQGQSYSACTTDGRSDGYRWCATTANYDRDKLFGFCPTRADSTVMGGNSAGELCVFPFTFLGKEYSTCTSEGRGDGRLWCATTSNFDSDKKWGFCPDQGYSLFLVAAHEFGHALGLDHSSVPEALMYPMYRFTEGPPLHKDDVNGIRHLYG
Experimental: as §1, §2

MMP-1 = molecular target: T1, MMP-1 (Homo sapiens, UniProt P03956); experiment: In vitro metalloproteinase inhibition assay (colorimetric, thiopeptolide substrate), MMP-1; assay type: biochemical
T1 sequence (P03956 100-469): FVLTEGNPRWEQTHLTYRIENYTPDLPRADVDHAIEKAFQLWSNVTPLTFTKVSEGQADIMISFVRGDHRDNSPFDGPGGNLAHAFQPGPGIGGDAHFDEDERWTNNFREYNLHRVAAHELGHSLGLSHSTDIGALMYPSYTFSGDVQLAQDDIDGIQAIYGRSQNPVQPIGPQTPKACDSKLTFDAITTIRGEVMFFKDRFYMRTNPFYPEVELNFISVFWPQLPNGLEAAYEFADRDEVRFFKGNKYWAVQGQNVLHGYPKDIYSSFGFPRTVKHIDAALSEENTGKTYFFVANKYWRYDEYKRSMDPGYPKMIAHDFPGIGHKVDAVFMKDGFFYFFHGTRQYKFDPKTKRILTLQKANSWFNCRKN
Experimental: [The source words this procedure for another target and reports this target under the same test.] as §1
(§3) MMP-2 colorimetric assay kit-Catalogue number AK-408, MMP-9 colorimetric assay kit-Catalogue number AK-410, MMP-12 colorimetric assay kit-Catalogue number AK-402, Which are available from Affiniti Research Products Ltd. (Palatine House, Matford Court, Exeter, EX2 8NL, UK).
(§4) Inhibitors were provided in powdered form, and stored at 4° C. For each inhibitor a 1 mM stock solution in DMSO was prepared, dispensed into 20 μl aliquots and these aliquots stored at −20° C. The stock solution was diluted to give 8 inhibitor concentrations (recommended: 50 μM, 5 μM, […], 5 nM, […]). Dilutions were made in the kit assay buffer. A five-fold dilution of the inhibitor stocks is made on addition to the assay wells, therefore final concentration range was from 10 μM to 1 pM.
(§5) Details are provided with the commercial kit, but can be summarised as follows: • Prepare test compound dilutions as above, • Add assay buffer to plate, • Add test compounds to plate • Prepare standard kit inhibitor NNGH (see kit for dilution factor) • Add NNGH to control inhibitor wells • Prepare MMP enzyme (see kit for dilution factor) • Add MMP to plate • Incubate plate at 37° C. for ˜15 min • Prepare thiopeptolide substrate (see kit for dilution factor) • Add substrate to plate • Count every 2 min for 1 hr, 37° C., 414 nm on a Labsystems iEMS plate reader.

MMP-12 = MMP-12 (Homo sapiens, UniProt P39900); experiment: In vitro metalloproteinase inhibition assay (Biomol MMP-12 colorimetric assay kit); assay type: biochemical
Sequence of MMP-12 (P39900 106-263 limits assumed): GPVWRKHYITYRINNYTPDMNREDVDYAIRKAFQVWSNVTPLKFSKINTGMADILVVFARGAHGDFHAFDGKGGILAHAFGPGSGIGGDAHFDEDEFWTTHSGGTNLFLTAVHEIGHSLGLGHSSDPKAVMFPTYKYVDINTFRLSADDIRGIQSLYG
Experimental: as §1, §3, §4, §5

ApoE ligation model = experiment: Biodistribution in ApoE ligated animal model of MMP expression; assay type: in vivo, mice; settings: for Carotid: Blood / Carotid: Heart: ratio
Excerpt: The ApoE ligation model was also studied. ApoE mice are transgenic knock-out mice, which lack the ApoE gene, and are therefore unable to regulate their plasma cholesterol levels. As a consequence ApoE mice develop atherosclerotic lesions, a process which is accelerated with feeding of high fat diet. Further acceleration of lesion development can be achieved by ligating the carotid artery, resulting in advanced lesion formation within 4 weeks of surgery and high fat diet feeding. […] 105, 2686-2691 (2002)].

[1] = test system: Lewis Lung [LLC] Carcinoma Tumour model; experiment: Biodistribution in animal tumour model of MMP expression; assay type: in vivo; settings: for % ID/g Tumour: 15 days tumour growth
Excerpt: The in vivo Lewis Lung [LLC] Carcinoma Tumour model has been used for screening of MMP is due to reproducible up-regulation of several MMPs in the tumour. As such, this model provides a good assessment of the efficacy of the MMP is for in vivo targeting of lesions that express MMPs. Literature reports have shown that LLC cells express pro and active MMP-2 and pro NMP-9 and LLC tumours MMP-2 and MMP-9 (not classified as pro or active) [Bae et al Drugs Exp Clin Res. 29(1):15-23 (2003)].

MMP-8 = MMP-8 (Homo sapiens, UniProt P22894); experiment: In vitro metalloproteinase inhibition assay (colorimetric, thiopeptolide substrate), MMP-8; assay type: biochemical
Sequence of MMP-8 (P22894 101-467): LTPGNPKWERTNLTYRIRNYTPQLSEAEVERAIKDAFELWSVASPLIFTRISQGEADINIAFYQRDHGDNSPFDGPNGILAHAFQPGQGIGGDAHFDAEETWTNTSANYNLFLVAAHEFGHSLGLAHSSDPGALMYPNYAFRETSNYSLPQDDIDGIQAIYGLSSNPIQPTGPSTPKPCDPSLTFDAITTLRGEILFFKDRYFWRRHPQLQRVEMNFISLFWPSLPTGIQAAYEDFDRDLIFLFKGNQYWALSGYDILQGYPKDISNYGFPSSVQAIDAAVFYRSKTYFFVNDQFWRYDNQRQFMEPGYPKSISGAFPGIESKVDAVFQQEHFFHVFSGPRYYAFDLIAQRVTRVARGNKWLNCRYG
Experimental: [The source words this procedure for another target and reports this target under the same test.] as §1, §3
as §4, with “A five-fold dilution of the inhibitor stocks is made on addition to the assay wells, therefore final concentration range was from 10 μM to 1 pM.” left out
as §5

[2] = between 5 and 120 minutes post injection

Sequence of MMP-2 (P08253 110-446 limits assumed): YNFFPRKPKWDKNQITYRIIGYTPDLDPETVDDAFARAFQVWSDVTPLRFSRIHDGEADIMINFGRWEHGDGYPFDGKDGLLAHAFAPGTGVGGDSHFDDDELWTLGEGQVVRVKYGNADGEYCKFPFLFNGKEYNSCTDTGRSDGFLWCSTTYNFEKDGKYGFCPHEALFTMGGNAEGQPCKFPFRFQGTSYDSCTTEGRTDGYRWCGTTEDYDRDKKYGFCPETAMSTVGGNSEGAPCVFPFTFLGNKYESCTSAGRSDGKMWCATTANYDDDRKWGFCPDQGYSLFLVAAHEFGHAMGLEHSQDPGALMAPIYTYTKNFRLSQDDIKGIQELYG

## CNC(=O)C(CCC(=O)NCCOCCOCCOCCOCCOCCOCCOCCOCCOCCOCCOCCOCCC(=O)NCc1ccc(I)cc1)NC(=O)CC(CC(C)C)C(=O)NO (stereo not shown) [Compound 10]
MMP-2
  Ki: 8.8 ± 3.1 nM
MMP-9
  Ki: 2.85 ± 3.5 nM
MMP-1
  Ki: 23.9 nM
MMP-12
  Ki: 4.7 nM

## CNC(=O)C(CCC(=O)NCCOCCOCCOCCOCCOCCOCCOCCOCCOCCOCCOCCOCCC(=O)NCc1ccc(I)cc1)NC(=O)C(CC(=O)NO)CC(C)C (stereo not shown) [Compound 12]
MMP-2
  Ki: 21 ± 2.2 nM
MMP-9
  Ki: 7.15 ± 3.32 nM
MMP-1
  Ki: 28.5 nM
MMP-12
  Ki: 8.3 nM

## CNC(=O)[C@H](Cc1ccc([123I])cc1)NC(=O)C[C@@H](CC(C)C)C(=O)NO [Compound 2A]
ApoE ligation model; 5 min post injection
  % ID/g Blood: 6.5 % ID/g
  % ID/g Carotid: 3.3 % ID/g
  % ID/g Heart: 5.5 % ID/g
  Carotid: Blood: 0.5
  Carotid: Heart: 0.8
ApoE ligation model; 120 min post injection
  % ID/g Blood: 1.5 % ID/g
  % ID/g Carotid: 2.7 % ID/g
  % ID/g Heart: 3.6 % ID/g
  % Retained Carotid: 83%
  Carotid: Blood: 1.8
  Carotid: Heart: 0.8
ApoE ligation model; 360 min post injection
  % ID/g Blood: 1.6 % ID/g
  % ID/g Carotid: 1.6 % ID/g
  % ID/g Heart: 1.5 % ID/g
  % Retained Carotid: 47%
  Carotid: Blood: 1.0
  Carotid: Heart: 1.0
ApoE ligation model; [2]
  carotid uptake and retention: exhibited carotid uptake and retention
ApoE ligation model; mouse, in vivo
  carotid to blood ratios: good
  clearance from normal tissues [e.g. blood and other background tissues]: significant
[1]; 5 min post injection
  % ID GI Excretion: 17.81 % ID
  % ID Heart: 0.86 % ID
  % ID Liver: 29.76 % ID
  % ID Lung: 1.38 % ID
  % ID Urinary Excretion: 19.85 % ID
  % ID/g Blood: 5.89 % ID/g
  % ID/g Tumour: 1.39 % ID/g
[1]; 30 min post injection
  % ID GI Excretion: 28.46 % ID
  % ID Heart: 0.57 % ID
  % ID Liver: 24.43 % ID
  % ID Lung: 0.73 % ID
  % ID Urinary Excretion: 22.52 % ID
  % ID/g Blood: 2.19 % ID/g
  % Retained Tumour: 78%
  % ID/g Tumour: 1.08 % ID/g
[1]; 60 min post injection
  % ID GI Excretion: 29.5 % ID
  % ID Heart: 0.56 % ID
  % ID Liver: 20.04 % ID
  % ID Lung: 0.59 % ID
  % ID Urinary Excretion: 27.7 % ID
  % ID/g Blood: 1.49 % ID/g
  % Retained Tumour: 87%
  % ID/g Tumour: 1.21 % ID/g
[1]; 120 min post injection
  % ID GI Excretion: 34.42 % ID
  % ID Heart: 0.49 % ID
  % ID Liver: 13.45 % ID
  % ID Lung: 0.45 % ID
  % ID Urinary Excretion: 31.03 % ID
  % ID/g Blood: 1.38 % ID/g
  % Retained Tumour: 97%
  % ID/g Tumour: 1.35 % ID/g
[1]; between 5 and 120 minutes p.i.
  clearance from normal tissues [e.g. blood and other background tissues]: occurred between 5 and 120 minutes p.i.
[1]; [2]
  tumour uptake and retention: exhibited tumour uptake and retention

## CC(C)CC(CC(=O)NO)C(=O)NC(Cc1c[nH]c2ccccc12)C(=O)NCCOCCOCCOCCOCCOCCOCCOCCOCCOCCOCCOCCOCCC(=O)NCc1ccc(I)cc1 (stereo not shown) [Compound 16]
MMP-2
  Ki: 0.61 ± 0.16 nM
MMP-9
  Ki: 0.5 ± 0.42 nM
MMP-1
  Ki: 18 ± 1.69 nM
MMP-12
  Ki: 0.4 ± 0.09 nM

## CC(C)C[C@H](CC(=O)NO)C(=O)N[C@@H](Cc1c[nH]c2ccccc12)C(=O)NCc1ccc(I)cc1 [Compound 7]
MMP-1
  Ki: 1.57 ± 2.37 nM

## CNC(=O)[C@H](Cc1ccc(I)cc1)NC(=O)[C@@H](CC(=O)NO)CC(C)C [Compound 3]
MMP-2
  Ki: 0.2 ± 0.11 nM
MMP-9
  Ki: 0.11 ± 0.08 nM
MMP-1
  Ki: 1.77 nM
MMP-12
  Ki: 0.4 ± 0.04 nM

## CC(C)C[C@H](CC(=O)N[C@@H](Cc1c[nH]c2ccccc12)C(=O)NCc1ccc([123I])cc1)C(=O)NO [Compound 6A]
ApoE ligation model; 5 min post injection
  % ID/g Blood: 9.9 % ID/g
  % ID/g Carotid: 3.9 % ID/g
  % ID/g Heart: 9.8 % ID/g
  Carotid: Blood: 0.3
  Carotid: Heart: 0.4
ApoE ligation model; 60 min post injection
  % ID/g Blood: 3.2 % ID/g
  % ID/g Carotid: 1.4 % ID/g
  % ID/g Heart: 2.2 % ID/g
  % Retained Carotid: 36%
  Carotid: Blood: 0.6
  Carotid: Heart: 0.7
ApoE ligation model; 120 min post injection
  % ID/g Blood: 2.5 % ID/g
  % ID/g Carotid: 1.4 % ID/g
  % ID/g Heart: 1.5 % ID/g
  % Retained Carotid: 37%
  Carotid: Blood: 0.6
  Carotid: Heart: 1.0

## CC(C)C[C@H](CC(=O)N[C@@H](C)C(=O)NCc1ccc([123I])cc1)C(=O)NO [Compound 18A]
ApoE ligation model; 5 min post injection
  % ID/g Blood: 7.3 % ID/g
  % ID/g Carotid: 2.9 % ID/g
  % ID/g Heart: 10.1 % ID/g
  Carotid: Blood: 0.5
  Carotid: Heart: 0.3
ApoE ligation model; 120 min post injection
  % ID/g Blood: 2.4 % ID/g
  % ID/g Carotid: 1.0 % ID/g
  % ID/g Heart: 2.6 % ID/g
  % Retained Carotid: 34%
  Carotid: Blood: 0.4
  Carotid: Heart: 0.4
ApoE ligation model; 360 min post injection
  % ID/g Blood: 1.2 % ID/g
  % ID/g Carotid: 0.8 % ID/g
  % ID/g Heart: 1.0 % ID/g
  % Retained Carotid: 26%
  Carotid: Blood: 0.7
  Carotid: Heart: 0.8

## CC(C)CC(CC(=O)NC(Cc1c[nH]c2ccccc12)C(=O)NCCOCCOCCOCCOCCOCCOCCOCCOCCOCCOCCOCCOCCC(=O)NCc1ccc(I)cc1)C(=O)NO (stereo not shown) [Compound 14]
MMP-2
  Ki: 0.21 ± 0.05 nM
MMP-9
  Ki: 0.04 ± 0.03 nM
MMP-8
  Ki: 0.082 nM
MMP-1
  Ki: 2.68 ± 0.19 nM
MMP-12
  Ki: 0.51 nM
